Laboratory results published in patent US6303761A, “Triaminepentaacetic acid compound and paramagnetic metal complex prepared from using the compound as ligand” (Department of Health The Executive Yuan, Republic of China, priority 1999, dated 2001).
Where “and” joins values, the source holds several entries; their conditions need not be identical. Identical values can stand only once. Like-named read-outs stand apart in the source and are kept apart here. One block for each molecule: values may come before it.

Experiments:
pM value, Ca^2+ = settings: pH 7.4, TL 1.1×10^-5, TM 1.0×10^-6 mol dm^-3
pM value, Zn^2+ = settings: pH 7.4, TL 1.1×10^-5, TM 1.0×10^-6 mol dm^-3
pM value, Cu^2+ = settings: pH 7.4, TL 1.1×10^-5, TM 1.0×10^-6 mol dm^-3
pM value, Gd^3+ = settings: pH 7.4, TL 1.1×10^-5, TM 1.0×10^-6 mol dm^-3
[1] = Inner-sphere water molecules (Dy(III)-induced ^17 O-NMR chemical shift, X-ray, deduction); type: physicochemical
Description: The chemical shift (d.i.s.) of the Dy(III)-induced ^17 O is determined by ^17 O-NMR. The relationship between the Dy(III) complex concentration and d.i.s. is shown in equation (14)
d.i.s.=qΔ[Dy(ligand)n ](H2 O)q /[H2 O] (14)
The slope of equation (14) is qΔ/[H2 O], and q refers to the inner-sphere water molecule. […] It is known that Dy(III) can bind with eight water molecules at low concentration, and q is in a linear relationship with the slope.

[2] = cited from earlier work; for LD50: in vivo
[3] = cited from earlier work
[4] = Thermodynamic and conditional stability constants of the Ca^2+ complexes (potentiometric titration, program BEST); type: physicochemical; settings: 25.0 ± 0.1° C., aqueous Me4 NNO3, I = 0.10 mol dm^-3
Description: (§1) The pH electrode was calibrated using two standard buffer solutions with pH 7.0±0.05 and pH 4.0±0.05 respectively. The ionic strength was 0.10 mol dm^-3 Me4 NNO3 ((CH3)4 NNO3). […] The titrant used was 0.1 mol dm^-3 NaOH with a titration amount of 0.005 ml/time.
(§2) (1) Direct Potentiometric Titration: The metal ion and ligand is mixed in 1:1 molar ratio.
(§3) (2) Ligand-ligand Competition Titration: The metal ion, ligand, and EDTA is mixed in 1:1:1 molar ratio.
(§4) M: metal ion, L: organic ligand, ML: metal complex The conditional stability constant is defined by equation (2): [formula]
(§5) The relationship between the conditional stability constant and the thermodynamic stability constant is defined by equation (3): [formula]
(§6) K2^H [H^+ ]^2 + . . . }^-1 =KthermαH

[5] = Species distribution of the ligands at various pH values (SPE, SPEPLOT); type: physicochemical; settings: 7.0×10^-3 mol dm^-3 system
Description: The average difference between observed and calculated -log[H^+ ] was <0.04 throughout all titrations.
When pH=7.0, the concentration of [H2 L]^3- is the maximum (97.5%). In the pH 3-5 range, the dominant species is the third protonated species [H3 L]^2-. When pH=3.7, the concentration of [H3 L]^2- is the maximum (87.75%). […] When pH=9.8, the concentration of [HL]^4- is the maximum (77.5%). In the pH 2-3 range, the dominant species is the fourth protonated species [H4 L]^-. When pH=2.3, the concentration of [H4 L]^- is the maximum (60.9%). In the pH range greater than 11, the dominant species is the deprotonated species [L]^5-.
When pH=2.7, the concentration of [H4 L]^- is the maximum (55.9%). In the pH 3.5-7 range, the dominant species is the third protonated species [H3 L]^2-. When pH=5, the concentration of [H3 L]^2- is the maximum (97.7%). In the pH 7-9 range, the dominant species is the second protonated species [H2 L]^3-. When pH=8.1, the concentration of [H2 L]^3- is the maximum (86.5%). […] When pH=9.9, the concentration of [HL]^4- is the maximum (71.6%). In the pH range greater than 12, the dominant species is the deprotonated species [L]^5-. In the pH range less than 2, the dominant species is the totally protonated species [H5 L].
When pH=2.8, the concentration of [H4 L]^- is the maximum (45.9%). In the pH 3.5-7.5 range, the dominant species is the third protonated species [H3 L]^2-. When pH=5.2, the concentration of [H3 L]^2- is the maximum (99.0%). In the pH 8-9.5 range, the dominant species is the second protonated species [H2 L]^3-. When pH=8.6, the concentration of [H2 L]^3- is the maximum (78.8%). In the pH 9.5-11 range, the dominant species is the first protonated species [HL]^4-. When pH=10.1, the concentration of [HL]^4- is the maximum (67.2%). In the pH range greater than 12, the dominant species is the deprotonated species [L]^5-. In the pH range less than 2, the dominant species is the totally protonated species [H5 L].

[6] = Thermodynamic and conditional stability constants of the Zn^2+ complexes (potentiometric titration, program BEST); type: physicochemical; settings: 25.0 ± 0.1° C., aqueous Me4 NNO3, I = 0.10 mol dm^-3
Description: as §1, §2, §3, §4, §5, §6

[7] = Protonation constants of the organic ligands (potentiometric titration, program PKAS); type: physicochemical; settings: for pKa: aqueous me4nno3, 25.0 ± 0.1° C., aqueous Me4 NNO3, I = 0.10 mol dm^-3
Description: The ionic strength was 0.10 mol dm^-3 Me4 NNO3 ((CH3)4 NNO3). […] The titrant used was 0.1 mol dm^-3 NaOH with a titration amount of 0.005 ml/time.

[8] = Thermodynamic and conditional stability constants of the Cu^2+ complexes (potentiometric titration, program BEST); type: physicochemical; settings: 25.0 ± 0.1° C., aqueous Me4 NNO3, I = 0.10 mol dm^-3
Description: as §1, §2, §3, §4, §5, §6

[9] = type: physicochemical; settings: pH 7.4, plasma concentrations of Ca^2+, Cu^2+ and Zn^2+
[10] = Selectivity constant of the ligand for Gd^3+ over Ca^2+; type: physicochemical
[11] = Relaxivity R1 and its pH dependence; settings: pH 6.3 ± 0.1
[12] = read-out: first protonation constant log K1^H, [HL]/[L][H]
[13] = read-out: fourth protonation constant log K4^H, [H4 L]/[H3 L][H]
[14] = read-out: second protonation constant log K2^H, [H2 L]/[HL][H]
[15] = read-out: third protonation constant log K3^H, [H3 L]/[H2 L][H]
[16] = 25.0 ± 0.1° C., aqueous Me4 NNO3, I = 0.10 mol dm^-3

Molecule: O=C(O)CN(CCN(CC(=O)O)CC(=O)O)CCN(CC(=O)O)CC(=O)O [DTPA, diethylenetriaminepentaacetic acid, reference compound]
- pM (Ca^2+) (pM value, Ca^2+): 5.45
- pM (Zn^2+) (pM value, Zn^2+): 13.39
- conditional stability constant log KGdL' (pH 7.4): 18.14
- pM (Cu^2+) (pM value, Cu^2+): 16.06
- pM (Gd^3+) (pM value, Gd^3+): 17.14

- slope of d.i.s. versus Dy(III) complex concentration ([1]; ^17 O-NMR, FIG. 11): -445.6
Molecule: [Cl][Dy]([Cl])[Cl] [DyCl3]

Molecule: [Cl][Gd]([Cl])[Cl] [GdCl3, gadolinium chloride]
- LD50, intravenous, animal ([2]; intravenously injected to animal bodies): 0.3 to 0.5 mmol/kg

Molecule: O=C(O)CN1CCCN(CC(=O)O)CCN(CC(=O)O)CCN(CC(=O)O)CCN(CC(=O)O)CCCN(CC(=O)O)CCN(CC(=O)O)CCN(CC(=O)O)CC1 [H8 HEC, 1,4,7,10,14,17,20,23-octaazacyclohexacosane-1,4,7,10,14,17,20,23-octaacetic acid]
- water solubility of the bimetallic lanthanide complex [3]: higher water solubility

Molecule: O=C(O)CN1CCN(CC(=O)O)CCN(CC(=O)O)CCN(CC(=O)O)CCN(CC(=O)O)CCN(CC(=O)O)CCN(CC(=O)O)CCN(CC(=O)O)CC1 [H8 OTEC, 1,4,7,10,13,16,19,22-octaazacyclotetracosane-1,4,7,10,13,16,19,22-octaacetic acid]
- water solubility of the bimetallic lanthanide complex [3]: higher water solubility

- log K [CaHL]/[CaL][H] [4]: 8.2
- log K [CaL]/[Ca][L] [4]: 13.48
- pM (Ca^2+) (pM value, Ca^2+): 7.64
- maximum concentration of first protonated species [HL]^4- [5]: 67.2%
- maximum concentration of fourth protonated species [H4 L]^- [5]: 45.9%
- maximum concentration of second protonated species [H2 L]^3- [5]: 78.8%
- maximum concentration of third protonated species [H3 L]^2- [5]: 99.0%
- pH of maximum concentration of [H2 L]^3- [5]: 8.6 pH
- pH of maximum concentration of [H3 L]^2- [5]: 5.2 pH
- pH of maximum concentration of [H4 L]^- [5]: 2.8 pH
- pH of maximum concentration of [HL]^4- [5]: 10.1 pH
- pH range in which [H2 L]^3- is dominant [5]: 8-9.5 pH
- pH range in which [H3 L]^2- is dominant [5]: 3.5-7.5 pH
- pH range in which [H4 L]^- is dominant [5]: 2.5-3.5 pH
- pH range in which [HL]^4- is dominant [5]: 9.5-11 pH
- pH range in which deprotonated species [L]^5- is dominant [5]: greater than 12 pH
- pH range in which totally protonated species [H5 L] is dominant [5]: less than 2 pH
- pM (Zn^2+) (pM value, Zn^2+): 13.08
- log K [ZnHL]/[ZnL][H] [6]: 4.7
- log K [ZnL]/[Zn][L] [6]: 19.91
- pM (Cu^2+) (pM value, Cu^2+): 12.63
- basicity, Σ PKa [7]: 30.90
- pKa [7, 12]: 10.7
- pKa [7, 13]: 3.04
- pKa [7, 14]: 9.46
- pKa [7, 15]: 7.71
- log K [CuHL]/[CuL][H] [8]: 9.5
- log K [CuL]/[Cu][L] [8]: 17.33
Molecule: O=C(O)CN(CCCCN(CC(=O)O)CC(=O)O)CCCN(CC(=O)O)CC(=O)O [TTEA, 3,7,12-tri(carboxymethyl)-3,7,12-triazatetradecanedioic acid]
- complexation with metal ions, in words: very difficult to complex with metal ions

Molecule: O=C(O)CN(CCCN(CC(=O)O)CC(=O)O)CCCN(CC(=O)O)CC(=O)O [TTRA, 3,7,11-tri(carboxymethyl)-3,7,11-triazatridecanedioic acid]
- log K [CaHL]/[CaL][H] [4]: 8.02
- log K [CaL]/[Ca][L] [4]: 13.52
- pM (Ca^2+) (pM value, Ca^2+): 8.20
- maximum concentration of first protonated species [HL]^4- [5]: 71.6%
- maximum concentration of fourth protonated species [H4 L]^- [5]: 55.9%
- maximum concentration of second protonated species [H2 L]^3- [5]: 86.5%
- maximum concentration of third protonated species [H3 L]^2- [5]: 97.7%
- pH of maximum concentration of [H2 L]^3- [5]: 8.1 pH
- pH of maximum concentration of [H3 L]^2- [5]: 5 pH
- pH of maximum concentration of [H4 L]^- [5]: 2.7 pH
- pH of maximum concentration of [HL]^4- [5]: 9.9 pH
- pH range in which [H2 L]^3- is dominant [5]: 7-9 pH
- pH range in which [H3 L]^2- is dominant [5]: 3.5-7 pH
- pH range in which [H4 L]^- is dominant [5]: 2-3.5 pH
- pH range in which [HL]^4- is dominant [5]: 9.5-10.5 pH
- pH range in which deprotonated species [L]^5- is dominant [5]: greater than 12 pH
- pH range in which totally protonated species [H5 L] is dominant [5]: less than 2 pH
- pM (Zn^2+) (pM value, Zn^2+): 13.67
- log K [ZnHL]/[ZnL][H] [6]: 4.15
- log K [ZnL]/[Zn][L] [6]: 19.37
- log K [GdHL]/[GdL][H] [16]: 5.95
- log K [GdL]/[Gd][L] [16]: 15.89
- conditional stability constant log KGdL' (pH 7.4): 10.93
- modified selectivity constant log K sel' [9]: 2.64
- pM (Cu^2+) (pM value, Cu^2+): 13.12
- basicity, Σ PKa [7]: 29.85
- pKa [7, 12]: 10.6
- pKa [7, 13]: 3.1
- pKa [7, 14]: 9.12
- pKa [7, 15]: 7
- pM (Gd^3+) (pM value, Gd^3+): 9.80
- log K [CuHL]/[CuL][H] [8]: 8.68
- log K [CuL]/[Cu][L] [8]: 17.92
- selectivity constant log K(Gd/Ca) [10]: 2.37

- q (inner-sphere water) ([1]; Dy(III)-induced ^17 O-NMR shift): 0.8
- inner-sphere water molecules ([1]; ^17 O-NMR): only one
Molecule: O=C([O-])CN1CCN(CC(=O)[O-])CCN(CC(=O)[O-])CCN(CC(=O)[O-])CC1.[Dy+3] [[Dy(DOTA)]^-]

Molecule: CNC(=O)CN(CCN(CCN(CC(=O)[O-])CC(=O)NC)CC(=O)[O-])CC(=O)[O-].[Gd+3] [[Gd(DTPA-BMA)], diethylenetriamine pentaacetic acid bis(methylamide)-gadolinium(III)]
- Relaxivity R1 [11]: 3.74 dm^3 mmol^-1 s^-1 and 3.74 ± 0.05 dm^3 mmol^-1 s^-1
- conditional stability constant (log Kcond) (pH 4.0): 11.25
- stability constant under physiological conditions (pH 7.4) (pH 7.4): 16.95
- LD50 [2]: 14.8 mmol/kg
- modified selectivity constant log K sel' [9]: 9.03
- inner-sphere water molecule by X-ray single crystal analysis ([1]; X-ray single crystal analysis): one

Molecule: N,N-bis(2-pyridylmethyl)diethylenetriamine-N,N',N"-triacetate-gadolinium(III) [[Gd(DTPA-BP)]]
- LD50 [2]: 3.2 mmol/kg
